According to patent publication US5760001A, “Cytokine restraining agents and methods of use in pathologies and conditions associated with altered cytokine levels” (Trega Biosciences, Inc., priority 1995, dated 1998):

Tests used:
Assay type in all cases: in vivo
TNF-α = test: Reduction of LPS-induced TNF levels in mice (IP dosing); conditions: 30 μg/mouse IP before LPS 5 mg/kg IP; vs untreated control mice
Method: Balb/c female mice weighing approximately 20 g were placed into two groups, a control group and a treated group. Five mg/kg of LPS in 0.9% saline was administered by intraperitoneal (IP) injection into the control mice. Mice in the treated group were first injected IP with 30 μg EX-2 or 150 μg EX-3 in saline, then, one mn after EX-2 or EX-3 was administered, the mice received LPS as described for the control group.
Blood samples were collected from the orbital sinus of treated and control mice at various times up to four hr after LPS was administered. The plasma was separated by centrifugation at 3000×g for 5 min, then diluted with four volumes of 1× phosphate buffer saline (pH 7.4) containing 1% bovine serum albumin. A 100 μl sample of serum was assayed by ELISA for TNF-α (Genzyme; Cambridge Mass.).
The mean (±SEM) TNF-α level in six mice from each group was determined and the percent reduction in TNF levels was calculated.

adult female Balb/c mice = test: Carageenan-induced paw swelling; conditions: 1 μg/mouse; measured at the 2 hr time point
Method: Carageenan-induced paw swelling was induced using a modification of the methods of Hiltz and Lipton, Peptides 11:979-982 (1990); Vinegar et al., Fed. Proc. 46:118-1.26 (1987); and Vinegar et al., J. Pharmacol. Expt. Therap. 166:96-103 (1969), each of which is incorporated herein by reference. Briefly, adult female Balb/c mice were anesthetized by IP injection of 7 mg/kg ketoamine and 0.6 mg/kg rompun. Foot pad thickness was measured using a spring loaded micrometer (Swiss Precision Instruments). Foot pad thickness was expressed in units of 1/100 inch. After baseline measurements were obtained, mice were injected into a hind foot pad with either 0.2 ml physiologic saline (control) or varying doses of EX-2 or EX-3 in 0.2 ml saline (treated). The first injection was followed immediately by injection of 0.02 ml of 0.15% κ-carageenan (Sigma Chemical Co.; St. Louis, Mo.).
Hind foot pad thickness was measured hourly for six hr, the change in thickness was determined and the percent reduction in swelling due to treatment with EX-2 was calculated.

[1] = system: Male Harlan Sprague-Dawley rats; test: Adult respiratory distress syndrome: LPS-induced PMN count in broncho-alveolar lavage fluid; conditions: 100 μg/kg IP at 0, 2 and 4 hr; intratracheal LPS 5 mg/kg; lavage at 6 hr
Method: These experiments were performed using a modification of the methods described by Ulich et al., Am. J. Pathol. 141:61-68 (1992) and by Wheelden et al., Lab. Animals 26:29-37 (1992), each of which is incorporated herein by reference. Male Harlan Sprague-Dawley rats were anesthetized using a mixture of 70 mg/kg ketamine and 6 mg/kg rompun injected IP. A 2-3 cm incision was made in the neck of each anesthetized rat and its trachea was exposed by blunt dissection of the surrounding soft tissue. The rats were suspended on a near vertical slab and intratracheal injections were performed by inserting into the exposed trachea, at a point 1 cm posterior to the larynx, a 25G×1/2 inch needle attached to a 1 cc syringe.
Each rat received 0.5 ml/kg of saline or 0.5 ml/kg of 10 mg/ml (5 mg/kg) LPS endotoxin via slow intratracheal administration. Immediately following administration of the LPS endotoxin, rats were injected IP with 1 ml/kg of either saline (control) or saline containing various concentrations of EX-2 (treated). The rats were maintained in the elevated position for 1-2 min to facilitate distribution of the LPS and saline into the lung. The incisions were closed and the rats were allowed to recover. […]
The total polymorphonuclear leukocytes (PMN; neutrophils) in the broncho-alveolar lavage fluid were counted in the EX-2-treated rats and compared with the number in the control rats.

[2] = system: Adult male Sprague-Dawley rats; test: Disuse deconditioning (tail suspension) in rats; conditions: 1 or 5 μg/kg IP twice daily
Method: Adult male Sprague-Dawley rats (355-365 g) were used in this study. Animals were housed individually in standard rat cages and were acclimated on a treadmill for 4 days. The next day, a baseline tail bleed was performed, followed by a maximal treadmill stress test the day after. The day following the stress test, the animals were divided into the appropriate treatment and control groups and the animals were suspended by their tails in suspension cages, which simulates weightlessness and, therefore, deconditions the animals. Another group of control animals was placed in standard rat cages with grated flooring similar to that utilized in the suspension cages. All animals were housed one per cage and supplied with food and water ad libitum. Body weights and food consumptions were measured daily Animals received twice daily IP injections of 1 μg/kg or 5 μg/kg body weight of EX-2 (treated), or 1 ml/kg body weight of saline (control). On day 10, all animals were stress tested on the treadmill until they reached exhaustion. Data on maximum VO2 and running time were collected and compared to pre-suspension results. On day 14, all animals were sacrificed, and blood, tissues, and organs were collected for further analysis. All procedures and tests were performed blind to avoid researcher subjectivity. Statistical significance (p<0.05) between groups was evaluated by ANOVA with Student-Newman-Keuls test for multiple comparisons. All data are reported as the mean±standard error (SE).
All of the animals were subjected to the stress tests, which measured exercise time and maximal VO2. As well, levels of the oxidative enzyme soleus citrate synthase and tibia bone density were measured.
Soleus citrate synthase was attenuated by 50%.

male Sprague-Dawley rats = test: Glomerulonephritis (nephrotoxic serum), albuminuria; conditions: EX-2 100 μg/kg per injection, 3 times per day; nephrotoxic serum iv
Method: Male Sprague-Dawley rats (weight 194-248 g) were immunized by subcutaneous injection of 1 mg normal rabbit IgG (Sigma Chemical Co.) in Freund's complete adjuvant (Sigma Chemical Co.). EX-2 was administered 3 times per day (100 μg/kg per injection) throughout the duration of the experiment. Seven days later, the rats were injected with 1.5 ml of nephrotoxic serum iv via dorsal penile vein. Urine, plasma, and serum were collected before injection of nephrotoxic serum at 4, 6, 24, 48, and 96 hr thereafter. […] Albuminuria was quantified by immunoelectrophoresis.

Ac-Nle-Gln-His-(D)Phe-Arg-(D)Trp-Gly-NH2 [EX-2]
Reduction in TNF levels (TNF-α): 50%
Reduction in Carageenan-induced Paw Swelling (adult female Balb/c mice): 45%
Reduction in LPS-induced PMN Count [1]: 58%
Soleus Citrate Synthase, % Attenuation of suspension-induced decrease ([2]; 14 days suspension): 50%
Tibia Bone Density, % Attenuation of suspension-induced decrease ([2]; 14 days suspension): 50%
Exercise Time, % Attenuation of suspension-induced decrease ([2]; treadmill stress test day 10): 44%
Maximal VO2, % Attenuation of suspension-induced decrease ([2]; treadmill stress test day 10): 80%
Glomerulonephritis: Albumin (mg/day), % Reduction of induced increase (male Sprague-Dawley rats): 62%
